Laboratory results: US20220274927A1, “MEMBRANE-ACTIVE ANTI-BACTERIAL COMPOUNDS AND USES THEREOF” (Trustees of Dartmouth College, priority 2019, published 2022)
Converted amounts (≈) assume the structure as drawn. Read-outs that look alike come from different tables or passages of the source.

Tested on: methicillin-resistant S. aureus (FPR3757)
Experiment: MIC against clinical MRSA strain FPR3757 in Mueller-Hinton broth (CLSI)
Type: cell-based, Staphylococcus aureus
Settings: for fold loss of potency (MIC) relative to the comparator / fold increase in potency (MIC) relative to the comparator: MRSA FPR3757 MIC ratio
Excerpt: The first set of compounds evaluated were analogs at the C-7 and C-8 positions of the initial quinolone hit DNAC-2 since the other HTS hits identified (data not shown) were substituted at these positions (Table 1). Applicants first explored modification at the C-7 position with a small series of electron-donating and withdrawing substituents. […] However, analogs containing electron donating groups at C-7 including ethyl 7, benzyloxy 8, methoxy 9 and methylthio 10 are weakly active displaying MICs of 320-640 μg/mL indicating electron-donating substituents at C-7 are poorly tolerated. […] The C-8 position was evaluated with trifluoromethyl 4 and trifluoromethoxy 5 containing the optimal C-7 substituents. Both 4 and 5 are equipotent to the corresponding C-7 analogs 2 and 3 indicating some flexibility of the quinolone scaffold.

[1] = MRSA clinical strain FPR3757, Mueller-Hinton broth, CLSI guidelines, complete inhibition of observable growth
[2] = Staphylococcus aureus, MRSA, MRSA clinical strain FPR3757, Mueller-Hinton broth, CLSI guidelines, complete inhibition of observable growth, read-out: MIC
[3] = Staphylococcus aureus, MRSA, MRSA clinical strain FPR3757, Mueller-Hinton broth, CLSI guidelines, complete inhibition of observable growth

SMILES	MIC [1]	MIC [2]	also measured
FC(F)(F)Oc1cccc(Nc2cc(C(F)(F)F)nc3c(OC(F)(F)F)cccc23)c1 [Compound 1]	8 µg/mL (≈ 17.5 µM)		
O=c1cc(C(F)(F)F)[nH]c2cc(C(F)(F)F)ccc12 [Compound 2]	5 µg/mL (≈ 17.8 µM)	4 to 8 µg/mL (≈ 14.2 to 28.5 µM)	
O=c1cc(C(F)(F)F)[nH]c2cc(OC(F)(F)F)ccc12 [Compound 3]		4 to 8 µg/mL (≈ 13.5 to 26.9 µM)	
O=c1cc(C(F)(F)F)[nH]c2c(C(F)(F)F)cccc12 [Compound 4]		2 to 4 µg/mL (≈ 7.11 to 14.2 µM)	
O=c1cc(C(F)(F)F)[nH]c2c(OC(F)(F)F)cccc12 [Compound 5]		5 µg/mL (≈ 16.8 µM)	
O=c1cc(C(F)(F)F)[nH]c2cc(Cl)ccc12 [Compound 6]		20 µg/mL (≈ 80.8 µM)	
CCc1ccc2c(=O)cc(C(F)(F)F)[nH]c2c1 [Compound 7]	320 µg/mL (≈ 1330 µM)	320 to 640 µg/mL (≈ 1330 to 2650 µM)	
O=c1cc(C(F)(F)F)[nH]c2cc(OCc3ccccc3)ccc12 [Compound 8]	640 µg/mL (≈ 2000 µM)		
COc1ccc2c(=O)cc(C(F)(F)F)[nH]c2c1 [Compound 9]	640 µg/mL (≈ 2630 µM)	320 to 640 µg/mL (≈ 1320 to 2630 µM)	fold loss of potency (MIC) relative to the comparator: 80-160 fold
CSc1ccc2c(=O)cc(C(F)(F)F)[nH]c2c1 [Compound 10]	640 µg/mL (≈ 2470 µM)		
FC(F)(F)c1ccc2c(Nc3ccccc3)cc(C(F)(F)F)nc2c1 [Compound 11]			MIC (Staphylococcus aureus, MRSA): 128 µg/mL (≈ 359 µM)
CC(C)c1ccccc1Nc1cc(C(F)(F)F)nc2cc(C(F)(F)F)ccc12 [Compound 12]		320 µg/mL (≈ 803 µM)	
CC(=O)c1cccc(Nc2cc(C(F)(F)F)nc3cc(C(F)(F)F)ccc23)c1 [Compound 13]			MIC (Staphylococcus aureus, MRSA): > 128 µg/mL
N#Cc1cccc(Nc2cc(C(F)(F)F)nc3cc(C(F)(F)F)ccc23)c1 [Compound 14]	>32 µg/mL		
FC(F)(F)c1ccc2c(Nc3ccccc3Cl)cc(C(F)(F)F)nc2c1 [Compound 15]		> 16 µg/mL	
FC(F)(F)c1ccc2c(Nc3cccc(Cl)c3)cc(C(F)(F)F)nc2c1 [Compound 16]	0.25 µg/mL (≈ 0.64 µM)	0.125 to 0.25 µg/mL (≈ 0.32 to 0.64 µM)	
FC(F)(F)c1ccc2c(Nc3ccc(Cl)cc3)cc(C(F)(F)F)nc2c1 [Compound 17]	0.12 µg/mL (≈ 0.307 µM)	0.125 to 0.25 µg/mL (≈ 0.32 to 0.64 µM)	
Fc1cccc(Nc2cc(C(F)(F)F)nc3cc(C(F)(F)F)ccc23)c1 [Compound 18]			fold loss of potency (MIC) relative to the comparator: 16-64 fold
FC(F)(F)c1ccc2c(Nc3cccc(Br)c3)cc(C(F)(F)F)nc2c1 [Compound 19]		0.25 µg/mL (≈ 0.574 µM)	
FC(F)(F)c1ccc2c(Nc3cccc(I)c3)cc(C(F)(F)F)nc2c1 [Compound 20]		0.25 µg/mL (≈ 0.518 µM)	
Fc1ccc(Nc2cc(C(F)(F)F)nc3cc(C(F)(F)F)ccc23)cc1F [Compound 21]	0.12 to 0.25 µg/mL	0.125 to 0.25 µg/mL (≈ 0.319 to 0.637 µM)	
OCc1cccc(Nc2cc(C(F)(F)F)nc3cc(C(F)(F)F)ccc23)c1 [Compound 23]		> 16 µg/mL	
CSc1cccc(Nc2cc(C(F)(F)F)nc3cc(C(F)(F)F)ccc23)c1 [Compound 24]	0.25 to 0.5 µg/mL		
COc1cccc(Nc2cc(C(F)(F)F)nc3cc(C(F)(F)F)ccc23)c1 [Compound 25]		> 64 µg/mL	

SMILES	MIC [1]	MIC [2]	also measured
FC(F)(F)c1cccc(Nc2cc(C(F)(F)F)nc3cc(C(F)(F)F)ccc23)c1 [Compound 26]		0.25 µg/mL (≈ 0.589 µM)	fold increase in potency (MIC) relative to the comparator: 16 fold
FC(F)(F)Oc1cccc(Nc2cc(C(F)(F)F)nc3cc(C(F)(F)F)ccc23)c1 [Compound 27]		8 µg/mL (≈ 18.2 µM)	
FC(F)(F)c1ccc2c(Nc3ccc4c(c3)OCO4)cc(C(F)(F)F)nc2c1 [Compound 28]	>4 µg/mL		
FC(F)(F)c1ccc2c(Nc3cccc(N4CCOCC4)c3)cc(C(F)(F)F)nc2c1 [Compound 29]		> 16 µg/mL	
FC(F)(F)c1ccc2c(Nc3ccc(N4CCOCC4)cc3)cc(C(F)(F)F)nc2c1 [Compound 30]		> 16 µg/mL	
FC(F)(F)Oc1ccc2c(Nc3ccc(Cl)c(Cl)c3)cc(C(F)(F)F)nc2c1 [Compound 32]		0.5 to 1 µg/mL (≈ 1.13 to 2.27 µM)	
FC(F)(F)Oc1cccc(Nc2cc(C(F)(F)F)nc3cc(OC(F)(F)F)ccc23)c1 [Compound 33]	1 µg/mL (≈ 2.19 µM)	0.5 to 1 µg/mL (≈ 1.1 to 2.19 µM)	
FC(F)(F)Oc1ccc2c(Nc3ccc(C(F)(F)F)cn3)cc(C(F)(F)F)nc2c1 [Compound 34]	1 µg/mL (≈ 2.27 µM)	0.5 to 1 µg/mL (≈ 1.13 to 2.27 µM)	
COc1ccc2c(Nc3ccc(Cl)c(Cl)c3)cc(C(F)(F)F)nc2c1 [Compound 35]		2 µg/mL (≈ 5.17 µM)	
COc1ccc2c(Nc3ccc(F)c(F)c3)cc(C(F)(F)F)nc2c1 [Compound 36]		> 32 µg/mL	
COc1ccc2c(Nc3cccc(OC(F)(F)F)c3)cc(C(F)(F)F)nc2c1 [Compound 37]		> 32 µg/mL	
COc1ccc2c(Nc3ccc(C(F)(F)F)cn3)cc(C(F)(F)F)nc2c1 [Compound 38]		32 µg/mL (≈ 82.6 µM)	
FC(F)(F)Oc1cccc2c(Nc3ccc(Cl)c(Cl)c3)cc(C(F)(F)F)nc12 [Compound 42]		0.5 µg/mL (≈ 1.13 µM)	
FC(F)(F)Oc1cccc(Nc2cc(C(F)(F)F)nc3c(OC(F)(F)F)cccc23)c1 [Compound 43]	1 µg/mL (≈ 2.19 µM)		
FC(F)(F)Oc1cccc2c(Nc3ccc(C(F)(F)F)cn3)cc(C(F)(F)F)nc12 [Compound 44]		1 µg/mL (≈ 2.27 µM)	
FC(F)(F)c1cc(Nc2ccc(Cl)c(Cl)c2)c2cccc(C(F)(F)F)c2n1 [Compound 45]		0.5 to 2 µg/mL (≈ 1.18 to 4.7 µM)	
FC(F)(F)c1cccc(Nc2cc(C(F)(F)F)nc3c(C(F)(F)F)cccc23)c1 [Compound 46]		1 µg/mL (≈ 2.36 µM)	
FC(F)(F)c1ccc(Nc2cc(C(F)(F)F)nc3c(C(F)(F)F)cccc23)nc1 [Compound 47]		0.5 µg/mL (≈ 1.18 µM)	
FC(F)(F)c1ccc2c(Nc3cc(Cl)ccn3)cc(C(F)(F)F)nc2c1 [Compound 48]		2 µg/mL (≈ 5.11 µM)	fold loss of potency (MIC) relative to the comparator: 8 fold
FC(F)(F)c1ccc2c(Nc3ccc(C(F)(F)F)nc3)cc(C(F)(F)F)nc2c1 [Compound 49]		> 32 µg/mL	
Cn1cc(Nc2cc(C(F)(F)F)nc3cc(C(F)(F)F)ccc23)ccc1=O [Compound 50]		> 32 µg/mL	
Oc1ncccc1Nc1cc(C(F)(F)F)nc2cc(C(F)(F)F)ccc12 [Compound 51]		> 128 µg/mL	
O=c1cc(Nc2cc(C(F)(F)F)nc3cc(C(F)(F)F)ccc23)cc[nH]1 [Compound 52]		> 32 µg/mL	
FC(F)(F)c1ccc2c(Nc3ccncc3)cc(C(F)(F)F)nc2c1 [Compound 53]	>32 µg/mL		MIC [3]: > 32 µg/mL

SMILES	MIC [1]	MIC [2]	also measured
COC(=O)c1cc(Nc2cc(C(F)(F)F)nc3cc(C(F)(F)F)ccc23)ccn1 [Compound 54]	>32 µg/mL	> 32 µg/mL	
FC(F)(F)c1ccc2c(Nc3nccs3)cc(C(F)(F)F)nc2c1 [Compound 55]	1 to 2 µg/mL	2 µg/mL (≈ 5.51 µM)	
FC(F)(F)c1ccc2c(Nc3ncccn3)cc(C(F)(F)F)nc2c1 [Compound 56]	>32 µg/mL	> 32 µg/mL	
FC(F)(F)c1ccc2c(NC3CCCCC3)cc(C(F)(F)F)nc2c1 [Compound 57]	>16 µg/mL		MIC [3]: > 32 µg/mL
OC1CCCN(c2cc(C(F)(F)F)nc3cc(C(F)(F)F)ccc23)C1 (centres unmarked) [Compound 58]	>32 µg/mL	> 32 µg/mL	
FC(F)(F)c1ccc2c(N3CCOCC3)cc(C(F)(F)F)nc2c1 [Compound 59]	>32 µg/mL	> 32 µg/mL	
FC(F)(F)c1ccc2c(NC[C@@H]3CCCN3)cc(C(F)(F)F)nc2c1 [Compound 60]	>32 µg/mL	> 32 µg/mL	
FC(F)(F)c1ccc2c(Nc3cccc4[nH]ncc34)cc(C(F)(F)F)nc2c1 [Compound 61]	>32 µg/mL	> 32 µg/mL	
CN1Cc2cc(Nc3cc(C(F)(F)F)nc4cc(C(F)(F)F)ccc34)ccc2C1=O [Compound 62]	>32 µg/mL	> 32 µg/mL	
FC(F)(F)c1ccc2c(N3CCc4cccnc43)cc(C(F)(F)F)nc2c1 [Compound 63]	>32 µg/mL	> 32 µg/mL	
O=C1Cc2cc(Nc3cc(C(F)(F)F)nc4cc(C(F)(F)F)ccc34)ccc2N1 [Compound 64]	>32 µg/mL	> 32 µg/mL	
O[C@H]1C[C@H]2CC[C@@H](C1)C2Nc1cc(C(F)(F)F)nc2cc(C(F)(F)F)ccc12 (some centres unmarked) [Compound 65]	>32 µg/mL	> 32 µg/mL	
FC(F)(F)c1ccc2c(Nc3ccc(Cl)c(Cl)c3)nc(C(F)(F)F)nc2c1 [Compound 89]	0.5 µg/mL (≈ 1.17 µM)		fold loss of potency (MIC) relative to the comparator: 8 fold
FC(F)(F)Oc1cccc(Nc2nc(C(F)(F)F)nc3cc(C(F)(F)F)ccc23)c1 [Compound 90]	1 µg/mL (≈ 2.27 µM)		fold increase in potency (MIC) relative to the comparator: 8 fold
FC(F)(F)c1ccc(Nc2nc(C(F)(F)F)nc3cc(C(F)(F)F)ccc23)nc1 [Compound 91]			fold loss of potency (MIC) relative to the comparator: 8 fold
FC(F)(F)c1ccc(Nc2cc(N3CCNCC3)nc3cc(C(F)(F)F)ccc23)nc1 [Compound 102]	0.5 to 1 µg/mL		
FC(F)(F)c1ccc(Nc2cc(N3CCNCC3)c3ccc(C(F)(F)F)cc3n2)nc1 [Compound 103]	4 to 8 µg/mL		
FC(F)(F)c1ccc(Nc2cc(N3CCOCC3)c3ccc(C(F)(F)F)cc3n2)nc1 [Compound 105]	8 µg/mL (≈ 18.1 µM)		
O=c1cc(C(F)(F)F)[nH]c2cc(C(F)(F)F)cc(Nc3ccc(F)cn3)c12 [Compound 112]		0.12 µg/mL (≈ 0.307 µM)	
CN(C)c1ccc(Nc2cc(C(F)(F)F)cc3[nH]c(C(F)(F)F)cc(=O)c23)nc1 [Compound 113]	2 µg/mL (≈ 4.8 µM)	1 to 2 µg/mL (≈ 2.4 to 4.8 µM)	
O=c1cc(C(F)(F)F)[nH]c2cc(C(F)(F)F)cc(-c3ccc(C(F)(F)F)nn3)c12 [Compound 114]	1 µg/mL (≈ 2.34 µM)	1 to 2 µg/mL (≈ 2.34 to 4.68 µM)	
CN(C)S(=O)(=O)c1ccc(Nc2cc(C(F)(F)F)cc3[nH]c(C(F)(F)F)cc(=O)c23)nc1 [Compound 115]	2 µg/mL (≈ 4.16 µM)		
